According to ChEMBL document CHEMBL1152487, “3D-QSAR studies of HDACs inhibitors using pharmacophore-based alignment” (Eur J Med Chem, 2009):

Assay: Inhibition of HDAC

| Structure (SMILES) | IC50 [nM] | pIC50 |
| --- | --- | --- |
| O=C(CCCCCN1C(=O)c2ccccc2C1=O)NO | 103 | 6.99 |
| CC(=O)c1cc(/C=C/C(=O)NO)n(C)c1 | 11200 | 4.95 |
| Cn1cc(C=O)cc1CCC(=O)NO | 52600 | 4.28 |
| Cn1cc(C(=O)Cl)cc1/C=C/C(=O)NO | 9650 | 5.01 |
| Cn1cc(C=O)cc1/C=C/C(=O)NO | 12200 | 4.92 |
| O=C(CCCCCCC(=O)c1ccc(C(F)(F)F)cc1)NO | – | 7.35 |
| O=C(CCCCCCC(=O)c1cccnc1)NO | – | 6.82 |

Other lines, results leading:

| IC50 [nM] | pIC50 | Structure (SMILES) |
| --- | --- | --- |
| 300 | 6.52 | Cc1ccc(S(=O)(=O)Nc2ccc(/C=C/C(=O)NO)cc2)cc1 |
| 1000 | 6 | O=C(Cc1ccc(NS(=O)(=O)c2ccccc2)cc1)NO |
| – | 8.22 | O=C(CCCCC/C=C/c1ccc2ccccc2c1)NO |
| 60 | 7.22 | COc1ccc(S(=O)(=O)Nc2ccc(/C=C/C(=O)NO)cc2)cc1 |
| – | 7.6 | O=C(CCCCCCCc1ccc2ccccc2c1)NO |
| 300 | 6.52 | O=C(/C=C/c1ccc(NS(=O)(=O)c2ccc(Cl)cc2Cl)cc1)NO |
| 100 | 7 | O=C(/C=C/c1ccc(NS(=O)(=O)c2ccc(Cl)c(Cl)c2)cc1)NO |
| 100 | 7 | O=C(CCc1ccc(NS(=O)(=O)c2ccccc2)cc1)NO |
| – | 8.35 | O=C(CCCCCCC(=O)c1ccc(N2CCN(c3ccccc3)CC2)cc1)NO |
